Values of other authors as cited in patent publication EP0836475B1, “CONTROLLED RELEASE FORMULATIONS FOR POORLY SOLUBLE DRUGS” (ELAN CORPORATION, Plc, priority 1995, dated 1997).

Settings: ibuprofen from Lutrol-F68

T50 value of in vitro release: approximately 30 min.
Structure (SMILES): CC(C)Cc1ccc(C(C)C(=O)O)cc1 (stereo not shown) [ibuprofen]
